In ChEMBL document CHEMBL4011594, “Discovery and optimization of 2-pyridinone aminal integrase strand transfer inhibitors for the treatment of HIV” (Bioorg Med Chem Lett, 2017):
Converted amounts (≈) assume the structure as drawn.

Experiments:
[1] = Apparent permeability of the compound; type: physicochemical; settings: not told
[2] = Plasma protein binding in Beagle dog; type: ADME, cell-free, Canis lupus familiaris; settings: read-out: PPB (converted)
[3] = test system: Human immunodeficiency virus type 1 integrase (Human immunodeficiency virus 1), Q7ZJM1 [Q148R]; assay: Inhibition of HIV-1 integrase Q148R mutant strand transfer activity assessed as reduction in viral replication
[4] = test system: Human immunodeficiency virus 1; assay: Inhibition of HIV-1 integrase strand transfer activity assessed as reduction in viral replication in presence of 50% normal human serum
[5] = test system: Human immunodeficiency virus type 1 integrase (Human immunodeficiency virus 1), Q7ZJM1 [G140S,Q148H]; assay: Inhibition of HIV-1 integrase G140S/Q148H double mutant strand transfer activity assessed as reduction in viral replication
[6] = test system: Human immunodeficiency virus type 1 integrase (Human immunodeficiency virus 1), Q7ZJM1 [Y143R]; assay: Inhibition of HIV-1 integrase Y143R mutant strand transfer activity assessed as reduction in viral replication
[7] = Aqueous solubility of the compound at pH 7; type: physicochemical
[8] = test system: Human immunodeficiency virus 1; assay: Inhibition of wild-type HIV-1 integrase strand transfer activity assessed as reduction in viral replication in presence of 10% normal human serum
[9] = Oral bioavailability in Beagle dog at 1 mg/kg; type: ADME, organism-based, Canis lupus familiaris; settings: in vivo
[10] = test system: Human immunodeficiency virus type 1 integrase (Human immunodeficiency virus 1), Q7ZJM1 [E92Q]; assay: Inhibition of HIV-1 integrase E92Q mutant strand transfer activity assessed as reduction in viral replication
[11] = Half life in Beagle dog at 0.5 mg/kg, iv or 1 mg/kg, po; type: ADME, organism-based, Canis lupus familiaris; settings: in vivo
[12] = Volume of distribution in Beagle dog at 0.5 mg/kg, iv or 1 mg/kg, po; type: ADME, organism-based, Canis lupus familiaris; settings: in vivo
[13] = Aqueous solubility of the compound at pH 2; type: physicochemical
[14] = Clearance in Beagle dog at 0.5 mg/kg, iv or 1 mg/kg, po; type: ADME, organism-based, Canis lupus familiaris; settings: in vivo
[15] = test system: Human immunodeficiency virus type 1 integrase (Human immunodeficiency virus 1), Q7ZJM1 [Q148K]; assay: Inhibition of HIV-1 integrase Q148K mutant strand transfer activity assessed as reduction in viral replication
[16] = test system: Human immunodeficiency virus type 1 integrase (Human immunodeficiency virus 1), Q7ZJM1 [N155H]; assay: Inhibition of HIV-1 integrase N155H mutant strand transfer activity assessed as reduction viral replication

SMILES: N#Cc1cccc2c1[C@]1(CC2)NC(=O)c2c3c(c(O)c(=O)n21)C(=O)N(Cc1ccc(F)c(Cl)c1)CC3
- Papp [1]: 7 ×10⁻⁶ cm/s
- fraction unbound [2]: 0.028
- IP [3]: 7 nM
- IP [4]: 18 nM
- IP [5]: 18 nM
- IP [6]: 4 nM
- solubility [7]: 10 µM (≈ 5.05 µg/mL)
- IP [8]: 4 nM
- bioavailability [9]: 40%
- IP [10]: 18 nM
- half-life [11]: 10.6 h
- Vd [12]: 0.9 L/kg
- solubility [13]: 8 µM (≈ 4.04 µg/mL)
- clearance [14]: 2.4 mL/min/kg
- IP [15]: 9 nM
- IP [16]: 13 nM
